Laboratory results: patent US12636295B2, “Compositions and methods for the treatment of obstructive sleep apnoea (OSA)” (Incannex Healthcare Limited, priority 2020, dated 2026)
Like-named read-outs stand apart in the source and are kept apart here.

How the values were obtained:
subjects with OSA [1] = experiment: Published studies on the effect of single agent acetazolamide on AHI, with linear trend line dose-response; type: in vivo, human; conditions: from linear trend line of published studies
Source text: These studies tested a range of doses across a selection of different patient cohorts.

subjects with OSA [2] = conditions: cited from earlier work; for Reduction in AHI (%): relative to baseline or placebo
[3] = after ingestion; cited from earlier work
subjects with OSA [4] = experiment: Published study (Carley et al. 2018) on the effect of single agent dronabinol on AHI, with trend line dose-response; type: in vivo, human; conditions: from trend line of published data

**Q.** What does the source list for CC(=O)Nc1nnc(S(N)(=O)=O)s1 [Acetazolamide, acetazolamide]?
**A.** Predicted AHI reduction (%), single agent (subjects with OSA [1]; acetazolamide 125 mg): 23.4%; Predicted AHI reduction (%), single agent (subjects with OSA [1]; acetazolamide 250 mg): 27.1%; Predicted AHI reduction (%), single agent (subjects with OSA [1]; acetazolamide 500 mg): 34.5%; Acetazolamide AHI (subjects with OSA [2]; 250 mg/day, Chin, 1992, baseline/placebo AHI 38.9): 29.6; Reduction in AHI (%) (subjects with OSA [2]; 250 mg/day, Chin, 1992): 23.9%; Acetazolamide AHI (subjects with OSA [2]; 250 mg/day, Tojima, 1988, baseline/placebo AHI 25): 18.1; Reduction in AHI (%) (subjects with OSA [2]; 250 mg/day, Tojima, 1988): 27.6%; Reduction in AHI (%) (subjects with OSA [2]; 351.2 mg/day, Inoue, 1999): 29.5%; Acetazolamide AHI (subjects with OSA [2]; 375 mg/day, Inoue, 1987, baseline/placebo AHI 26.9): 17.3; Reduction in AHI (%) (subjects with OSA [2]; 375 mg/day, Inoue, 1987): 35.7%; Acetazolamide AHI (subjects with OSA [2]; 750 mg/day, Eskandari, 2018, baseline/placebo AHI 38): 23; Reduction in AHI (%) (subjects with OSA [2]; 750 mg/day, Eskandari, 2018): 39.5%; Acetazolamide AHI (subjects with OSA [2]; 1000 mg/day, Edwards, 2012, baseline/placebo AHI 49.6): 24; Reduction in AHI (%) (subjects with OSA [2]; 1000 mg/day, Edwards, 2012): 51.6%; Acetazolamide AHI (subjects with OSA [2]; 1000 mg/day, Whyte, 1988, baseline/placebo AHI 50): 26; Reduction in AHI (%) (subjects with OSA [2]; 1000 mg/day, Whyte, 1988): 48%; Time to mean peak plasma concentrations [3]: about 2 hours

**Q.** For CCCCCc1cc(O)c2c(c1)OC(C)(C)C1CCC(C)=CC21 (stereo not drawn) [Dronabinol], which “Predicted AHI reduction (%), single agent” value (subjects with OSA [4]; dronabinol 2.5 mg/day) is on record?
**A.** 23.4%

**Q.** What about the “Predicted AHI reduction (%), single agent” value (subjects with OSA [4]; dronabinol 5 mg/day) of the same molecule?
**A.** 26.5%

**Q.** And the “Time to peak effects” value [3]?
**A.** 2 to 4 h

**Q.** And the “Time to significant concentrations in plasma/blood” value [3]?
**A.** 30 to 60 min
